Patent US20230248775A1, “GENETIC MODIFICATION OF MAMMALIAN CELLS TO CONFER RESISTANCE TO CSF1R ANTAGONISTS” (THE REGENTS OF THE UNIVERSITY OF CALIFORNIA, priority 2021, published 2023)
“Also recorded” adds a separate entry of the source.

Assays:
[1] = test system: wild-type (WT) unedited human iPSC-microglia; experiment: Cell death assay (fluorogenic caspase 3/7, IncuCyte time-lapse imaging), WT microglia; format: cell-based; conditions: 250 nM, 500 nM, 1 μm, 24 hours, compared to DMSO control
Excerpt: (§1) FIGS. 4A, 4B, 4C, 4D, and 4E show human stem cell-derived microglia are also susceptible to and killed by CSF1R inhibition in vitro. […] Images captured on Incucyte S3 live-cell imager. […] Images captured on Incucyte S3 live-cell imager. […] Images captured on Incucyte S3 live-cell imager. […] Images captured on Incucyte S3 live-cell imager. […] For all panels, n=4 images in six independent wells were quantified. Data represented as mean values±SEM.
(§2) Strategy 1: A crystal structure of the CSF1R receptor bound to an antagonist (PMID: 31434879) to predict amino acid substitutions that may sterically hinder the binding of CSF1R antagonists while not impairing the normal binding of ATP into the same binding pocket. The crystal structure of PLX5622 bound to human CSF1R was obtained and the ATP binding pocket was examined (FIG. 7A). Through molecular modeling single amino acid changes were predicted that would likely impair the binding of PLX5622 or PLX3397 or other CSF1R antagonists while not disrupting normal ATP binding to CSF1R. […] Other mutations could also be explored to prevent binding (FIG. 7D). […] The resulting iPSCs were then differentiated into microglia and exposed to varying concentrations of either PLX3397 or PLX5622. To detect microglial cell death (apoptosis) a caspase-3/7 fluorogenic reporter was used. […] FIG. 4F provided representative images of cell density (phase-contrast microscopy, 1st column) and fluorescent Caspase-3/7 activity (2nd column) across each dose of PLX3397 and PLX5622.
(§3) Resistance to each of the CSF1R inhibitors tested was quantified using a fluorogenic caspase 3/7 detector (Essen BioScience) and time-lapse imaging over 24 hours.
(§4) Cell death assay: iPS-microglia were plated at 70K cells per 96-well plate (6 wells per line per condition). At time 0, all microglia were treated with IncuCyte Caspase-3/7 Green Apoptosis Assay Reagent 1:1000. Cells were maintained in the described medium: fresh complete medium+0.1% DMSO, complete media+250 nM PLX3397, complete medium+500 nM PLX3397, complete medium+[…] PLX3397, complete medium+250 nM PLX5622, complete medium+500 nM PLX5622, complete medium +[…] PLX5622, complete medium+250 nM Edicotinib, complete medium+500 nM Edicotinib, complete medium +1 μm Edicotinib, complete medium+250 nM BLZ945, complete medium+500 nM BLZ945, complete medium +1 μm BLZ945. Four 20× images per well were collected every hour for 24 hours. Using IncuCyte 2020B software, image masks for phase confluence (visually gated out apoptotic cells) as well as caspase 3/7 signal (green) were generated. Graphs display caspase normalized to phase confluence, completed with 3 lines: WT, G795A, G795C (see FIGS. 4A, 4B, 4C, 4D, and 4E).

[2] = test system: G795A iPSC-microglia; experiment: Cell death assay (fluorogenic caspase 3/7, IncuCyte time-lapse imaging), G795A microglia; format: cell-based, human; conditions: 250 nM, 500 nM, 1 μm, 24 hours, compared to DMSO control
Excerpt: as §1, §2, §3, §4

[3] = test system: G795C iPSC-microglia; experiment: Cell death assay (fluorogenic caspase 3/7, IncuCyte time-lapse imaging), G795C microglia; format: cell-based, human; conditions: 250 nM, 500 nM, 1 μm, 24 hours, compared to DMSO control
Excerpt: as §1, §2, §3, §4

[4] = test system: wild-type (WT) iPSC-microglia; experiment: LIVE/DEAD two-color viability/cytotoxicity, WT microglia; format: cell-based, human; conditions: 500 nM or 1 uM, 24 hours
Experimental: (§5) FIGS. 5A and 5B show G795A iPSC-derived microglia are resistant to CSF1R antagonist-induced cell death. As cells can die from processes other than caspase-mediated apoptosis, it is important to determine whether the G795A mutation provides a more broad-based resistance to any form of cell death induced by CSF1R antagonists, Therefore, G795A and wild-type (WT) iPSC-microglia were treated for 24 hours with either 500 nM (FIG, 5A) or 1 uM (FIG. 5B) of DMSO vehicle control or one of four CSF1R antagonists; PLX3397, PLX5622, Edicotinib, and BLZ945. The percent of live versus dead cells was then quantified using a two-color viability/cytotoxicity approach (Thermo L3224; LIVE/DEAD™ Viability/Cytotoxicity Kit). Very few dead microglia are observed 24 hours after treatment with DMSO. […] Live cells are denoted with a circle, […]

[5] = test system: G795A iPSC-microglia; experiment: LIVE/DEAD two-color viability/cytotoxicity, G795A microglia; format: cell-based, human; conditions: 500 nM or 1 uM, 24 hours
Experimental: as §5

[6] = test system: wild-type human xMGs; experiment: PLX3397 chow treatment of xenotransplanted mice, wild-type xMGs (IBA-1/Ku80/Ki67 immunohistochemistry); format: in vivo, mouse; conditions: 600 mg/kg of PLX3397 in rodent chow ad libitum, 4 weeks
Excerpt: (§6) FIGS. 11A, 11B, 11C, 11D, 11E, 11F, 11G, 11H, 11I, and 11J show G795A iPSC-derived microglia are resistant to CSF1R […] treatment and enable robust engraftment of human microglia within the adult mammalian brain. Xenotransplantation-compatible mice received bilateral stereotactic intrahippocampal injections of 500,000 iPSC-derived human microglia (xMGs) at 2-months of age. Mice received xMGs differentiated from either a homozygous CSF1R-resistant G795A human iPSC line or an isogenic unmodified Wild-Type human i PSC. At fours of age, mice were treated with 600 mg/kg of PLX3397 in rodent chow ad libitum for 4 weeks duration. Mice were then sacrificed, and half-brains were examined by fluorescent immunohistochemistry and confocal microscopy.

[7] = test system: G795A xMGs; experiment: PLX3397 chow treatment of xenotransplanted mice, G795A xMGs (IBA-1/Ku80/Ki67 immunohistochemistry); format: in vivo, human; conditions: 600 mg/kg of PLX3397 in rodent chow ad libitum, 4 weeks
Excerpt: as §6

[8] = test system: WT microglia; experiment: RNA-seq transcriptomic response to PLX5622, WT microglia; format: cell-based, human; conditions: 24-hour treatment, compared to DMSO-treated cells
Excerpt: (§7) FIGS. 2A, 2B, 2C, 2D, 2E, and 2F show selected CSF1R mutations have little effect on transcriptomic signature while simultaneously imparting resistance to PLX5622.

[9] = test system: MUT1 (i.e., G795A) microglia; experiment: RNA-seq transcriptomic response to PLX5622, MUT1 (G795A) microglia; format: cell-based, human; conditions: 24-hour treatment, compared to DMSO-treated cells
Excerpt: as §7

[10] = test system: MUT2 (i.e., G795C) microglia; experiment: RNA-seq transcriptomic response to PLX5622, MUT2 (G795C) microglia; format: cell-based, human; conditions: 24-hour treatment, compared to DMSO-treated cells
Excerpt: as §7

Compound	caspase 3/7 levels (cell death / apoptosis) [1]	caspase 3/7 levels (cell death / apoptosis) [2]	caspase 3/7 levels (cell death / apoptosis) [3]	cell death (percent of live versus dead cells) [4]	cell death (percent of live versus dead cells) [5]	survival of transplanted human xMGs in mouse brain [6]	survival / expansion of transplanted human xMGs in mouse brain [7]	transcriptomic alterations (FDR≤0.05; log2(FC)≥±1) [8]	transcriptomic alterations (FDR≤0.05; log2(FC)≥±1) [9]	transcriptomic alterations (FDR≤0.05; log2(FC)≥±1) [10]
CNC(=O)c1cc(Oc2ccc3nc(N[C@@H]4CCCC[C@H]4O)sc3c2)ccn1 [BLZ945]	significant levels of increased caspase	no significant increase in caspase levels	no significant increase in caspase levels	substantial cell death	little-to-no cell death					
CC1(C)CC=C(c2nc(C3CC(C)(C)OC(C)(C)C3)ccc2NC(=O)c2nc(C#N)c[nH]2)CC1 [Edicotinib]	significant levels of increased caspase	no significant increase in caspase levels	no significant increase in caspase levels	substantial cell death	little-to-no cell death					
FC(F)(F)c1ccc(CNc2ccc(Cc3c[nH]c4ncc(Cl)cc34)cn2)cn1 [PLX3397]	robust dose-dependent induction of apoptosis; also recorded: significant levels of increased caspase	complete resistance to cell death; also recorded: no significant increase in caspase levels	complete resistance to cell death; also recorded: no significant increase in caspase levels	substantial cell death	little-to-no cell death	only a handful of wild-type human xMGs survive	proliferate and expand from the initial injection sites			
COc1ncc(F)cc1CNc1ccc(Cc2c[nH]c3ncc(C)cc23)c(F)n1 [PLX5622]	robust dose-dependent induction of apoptosis; also recorded: significant levels of increased caspase	complete resistance to cell death; also recorded: no significant increase in caspase levels	complete resistance to cell death; also recorded: no significant increase in caspase levels	substantial cell death	little-to-no cell death			induced significant transcriptomic alterations	failed to significantly alter gene expression	failed to significantly alter gene expression
